According to US20060094783A1 (Tava Pharmaceutical Industries, Ltd., priority 1990, published 2006):
Where “and” joins values, the source holds several entries; their conditions need not be identical. Equal values may be shown once. Where a name gives a salt, the structure may show the parent alone. Read-outs that look alike come from different tables or passages of the source.

How the values were obtained:
[1] = tested on: maximal electroshock seizures in mice; assay: Maximal electroshock test (MES test) in mice; assay type: in vivo, mouse; settings: 100 mg/kg
Description: The MES test is a classical model to indicate efficacy for partial and generalized seizures in humans. The agents' mechanism of action is via their ability to prevent the spread of seizures. Some agents, however, that prevent seizure spread have the side effect of lowering seizure threshold. These agents therefore have both proconvulsive and anticonvulsive side effects.

[2] = tested on: haloperidol-induced catalepsy in mice; assay: Reversal of haloperidol-induced catalepsy in mice; assay type: in vivo, mouse; settings: peak effect at 7.5-10 mg/kg, 3 hours after haloperidol
Protocol: All drugs were administered i.p. in a volume of 0.2 mL. Two hours later, haloperidol was injected s.c. at a dose of 6 mg/kg in a volume of 0.1-0.2 mL. Motor coordination tests were made at 3 hours after giving haloperidol, that is, 5 hours after administering the presumed protective drugs.
Motor coordination tests and rigidity were quantified according to three different parameters: (a) ability to walk the length of a horizontal rod, 80 cm-long; (b) ability to climb down, face down, a vertical rod, 80 cm-long; (c) duration of immobility in an unnatural sitting posture whereby the abdomen of the mouse is pressed against a “wall.” Full performance as in haloperidol-untreated mice is given the score of 4 in each test, or a total of 12 in all tests. Poor performance is given a score from 1 to 3.

[3] = tested on: neonatal rat cerebellum cell cultures; settings: for Percent Protection: after subtraction of solvent effect
Protocol: Procedures: cultures of mechanically dissociated neonatal rat cerebellum. […] The cerebella are then dissociated after 20-25 passages through a sterile 13 gauge, 10 cm long stainless steel needle attached to a 5 ml syringe with an inserted 45 μm pore size nylon sieve. The dissociated cells are centrifuged at 200 g for 5 minutes, the supernatant discarded and the cells resuspended in enriched medium. The cell viability is determined by the trypan blue exclusion test. […] After 4 days in culture, the media are replaced with media containing the desired test compounds. Experiments are done in duplicate and repeated 2 or 3 times. […] Nerve cell survival is evaluated by phase contrast microscopy and trypan blue staining after 24 h.
Values, expressed as the percent of untreated controls, represent the average of 2 experiments run in duplicate for culture experiments, and the mean±SEM of 4 animals for ischemia. The percent protection value is the effect of the test compound after subtraction of the solvent effect.

[4] = tested on: crush-injured rat optic nerve; settings: rats, 2 mg/kg i.p. immediately after optic nerve crush
Description: At short terms, metabolic measurements were monitored in terms of the mitochondrial NADH/NAD ratio, which depends on the activity of the electron transport system, and thus indicate levels of energy production.
Monitoring of the intramitochondrial NADH redox state is based on the fact that NADH, unlike the oxidized form NAD^+, fluoresces when illuminated at […]. A flexible Y-shaped bundle of optic fibers (light guide) was used to transmit the light to and from the optic nerve. […] Changes in the reflected light were correlated with changes in tissue absorption caused by hemodynamic effects and with movements of the optic nerve secondary to alterations in arterial blood pressure and nerve volume.
Animal utilization was in accord with the ARVO Resolution on the use of animals in research. […] With the animal's head held in place by a head holder, a lateral canthotomy was performed under a binocular operating microscope and the conjuctiva was incised lateral to the cornea.

MCA-occluded Wistar rats [5] = tested on: MCA-occluded Wistar rats
Protocol: (§1) Middle cerebral artery occlusion (MCAO) in the rat. […] Male Wistar rats (Olac England-Jerusalem) 300-400 g each were anesthetized with a solution of Equitesine administered i.p. at a dose of 3 mL/kg. Equitesine consists of 13.5 mL sodium pentothal solution (60 mg/mL), 3.5 g chloral hydrate, 1.75 g MgSO4, 33 mL propylene glycol, 8.3 mL absolute alcohol made up to 83 mL with distilled water. […] In order to expose the left middle cerebral artery, a cut was made in the temporal muscle. The tip of the coronoid process of mandible was excised as well and removed with a fine rongeur. Craniectomy was made with a dental drill at the junction between the median wall and the roof of the inferotemporal fossa. The dura matter was opened carefully using a 27 gauge needle. The MCA was permanently occluded by microbipolar coagulation at low power setting, beginning 2-3 mm medial to the olfactory tract between its cortical branch to the rhinal cortex and the laterate striate arteries.
After coagulation, the MCA was severed with microscissors and divided to ensure complete occlusion. Following this, the temporalis muscle was sutured and laid over the craniectomy site. The skin was closed with a running 3-0 silk suture. A shad craniectomy operation was performed on a parallel group of rats, but without cauterization of the MCA. During the entire surgical operation (20-25 min) in either group, body temperature was maintained at 37 to 38° C. by means of a body-temperature regulator (Kyoristsu, Japan) consisting of a self-regulating heating pad connected to a rectal thermistor. […] The volume of brain tissue incurring damage following ischemia was determined.
1 mg/kg immediately after surgery.
0.5 mg/kg 2 hours after surgery
Then multislices T2-weighted images (3000/80) were acquired (5 contiguous slices, 3 mm thick).
The following MRI parameters were determined for each group of rats:
The use of contiguous slices allows the conversion-of area units into volume units by simply multiplying the area value by the slice thickness

MCA-occluded Wistar rats [6] = tested on: MCA-occluded Wistar rats; remark: listed apart in the source
Protocol: as §1
After coagulation, the MCA was severed with microscissors and divided to ensure complete occlusion. Following this, the temporalis muscle was sutured and laid over the craniectomy site. The skin was closed with a running 3-0 silk suture. A shad craniectomy operation was performed on a parallel group of rats, but without cauterization of the MCA. […] The volume of brain tissue incurring damage following ischemia was determined. […]

[7] = tested on: Metrazol seizure threshold in mice; assay: Timed Intravenous Infusion of Metrazol test; assay type: in vivo, mouse; settings: 141 mg/kg
Protocol: Timed Intravenous Infusion of Metrazol Test. This test measures the minimal seizure threshold of each animal. Metrazol is infused at 0.185 mg/ml into the tail veins of mice.

[8] = tested on: passive avoidance response in young rats; assay: Passive avoidance test in young rats (memory); assay type: in vivo, rat; settings: Protocol B (0.5 mg/kg/day), anoxia-lesioned rats
Description: The effect of R(+)-PAI and S(−)-PAI on the improvement or restoration of memory was investigated in the passive avoidance test. If the drug is effective, it increases the latency of response to enter a dark compartment or chamber where an electroshock has been experienced earlier by the rat being tested. The latency of the maximal response is 300 seconds.

[9] = tested on: anoxia-induced hyperactive syndrome in juvenile rats; assay: Anoxia-induced hyperactive syndrome in juvenile rats; assay type: in vivo, rat; settings: 0.5 mg/kg/day to nursing mother
Protocol: Anoxia was performed on rat pups on the first post-natal day. They were placed in a glass chamber and exposed to 100% nitrogen for 25 minutes. They were resuscitated by intermittent massage softly applied to the chest and then returned to their respective mothers. Control rats received the same treatment but with air instead of nitrogen.
Locomotion was measured in 6 fully computerized cages (28×28 cm) by recording the number of crossings over a given period of time. Crossings of grid infrared beams at 4-cm intervals initiated electrical impulses which fed a counter. Recordings of motor activity were made at the ages of 15 and 20 days, over a period of 15 minutes.

[10] = tested on: MPTP-induced striatal DA and DOPAC depletions in mice; assay: Suppression of MPTP-induced dopaminergic toxicity (striatal DA and DOPAC); assay type: in vivo, mouse; settings: PAI […] i.p., deprenyl 5 mg/kg i.p., 5 days
[11] = tested on: amphetamine-induced stereotype behavior in senescent rats; assay: Amphetamine-induced stereotype behavior in senescent rats; assay type: in vivo, rat; settings: control senescent rats, 0.5 mg/kg/day in drinking water, amphetamine 0.5 mg/kg s.c.
Protocol: 45 minutes later, lateral head movements were counted.

[12] = pretreatment 1 h before MPTP 30 mg/kg s.c.

With `C#CCN[C@@H]1CCc2ccccc21.CS(=O)(=O)O` [(R)-PAI Mesylate, R-(+)-N-propargyl-1-aminoindan mesylate] the mice protected [1] was “one out of three”, the “peak activity score as % of saline control” value [2] was 94% and the “Surviving Cells (percent of untreated controls)” value ([3]; 0.01 μM + NMDA) was 12. For the same molecule, the “Percent Protection” value ([3]; 0.01 μM + NMDA) was 2, the “Surviving Cells (percent of untreated controls)” value ([3]; 1.00 μM + NMDA) was 22 and the “Percent Protection” value ([3]; 1.00 μM + NMDA) was 12. For the same molecule, the “Surviving Cells (percent of untreated controls)” value ([3]; 10.00 μM + NMDA) was 37, the “effect on injury-induced reduction in energy production (NADH response to anoxia)” value [4] was “blocked the injury-induced reduction in energy production” and the “Infarct size, MEAN ± SD” value (MCA-occluded Wistar rats [5]; Table 21, n=9, MRI T2 scan 48 h after MCA-O, 1.0, 0.5, 1.0 mg/kg ip at 0, 2, 24 hrs) was 163.5 ± 43.9 mm^3. For the same molecule, the “reduction of infarct size” value (MCA-occluded Wistar rats [5]; Table 21, n=9 vs 10 untreated) was “[R](+)PAI Mesylate reduces infarct size by 40% significantly”, the “Infarct size, MEAN + SD” value (MCA-occluded Wistar rats [5]; Table 22, n=5, MRI 48 hrs after MCA-Occlusion) was 172 ± 28 mm^3 and the “reduction of infarct size” value (MCA-occluded Wistar rats [5]; Table 22, n=5 vs 6 untreated MCAO rats, mesylate) was 36% and 36.3%. The “infarct size as % of that in untreated animals” value (MCA-occluded Wistar rats [5]; n=9 vs 10 untreated) was “about 60%”, the “Neurological Score, MEAN + SD” value (MCA-occluded Wistar rats [6]; n=5, 24 hrs after MCA-Occlusion, scale 0-13) was 2.78 ± 1.3 and the “reduction of neurological score” value (MCA-occluded Wistar rats [6]; n=5 vs 6 untreated MCAO rats, mesylate) was 54% and 53.7%.

`C#CCN[C@H]1CCc2ccccc21` [(S)-PAI Mesylate] was tested, and the “effect on time to first focal seizure and onset of clonus (proconvulsive activity)” value [7] was “reduces the time” and the mice protected [1] was “three out of three”.

For `C#CCN[C@H]1CCc2ccccc21` [S(−)PAI], the “latency After Electroshock” value [8] was 112 ± 112 s, the “latency Before Electroshock” value [8] was 48 ± 19 s and the “numbers of crossings of infrared beam grid over 15 minutes” value ([9]; 15-day old anoxia-lesioned rats) was 334 ± 196(5). The “numbers of crossings of infrared beam grid over 15 minutes” value ([9]; 20-day old anoxia-lesioned rats) was 778 ± 232(6), the “striatal DA” value ([10]; drug alone) was 174.0 ± 4.8 ng/mg protein and the “striatal DOPAC” value ([10]; drug alone) was 7.5 ± 0.2 ng/mg protein. The “striatal DA” value [10, 12] was 53.4 ± 6.9 ng/mg protein, the “striatal DOPAC” value [10, 12] was 7.0 ± 0.6 ng/mg protein and the “Stereotype Behavior Rating (lateral head movements in 1 minute)” value [11] was 94 ± 18.
